Experimental data published in ChEMBL document CHEMBL1914389, “Steroidal C-21 mercapto derivatives as dissociated steroids: discovery of an inhaled dissociated steroid” (Bioorg Med Chem Lett, 2011).

Experiments:
[1] = biological target: T1, Glucocorticoid receptor (Homo sapiens) (UniProt P04150); assay: Transactivation activity at glucocorticoid receptor in human HepG2 cells assessed as induction of tyrosine amino transferase at 1 uM relative to control; assay type: cell-based
T1 sequence (whole entry): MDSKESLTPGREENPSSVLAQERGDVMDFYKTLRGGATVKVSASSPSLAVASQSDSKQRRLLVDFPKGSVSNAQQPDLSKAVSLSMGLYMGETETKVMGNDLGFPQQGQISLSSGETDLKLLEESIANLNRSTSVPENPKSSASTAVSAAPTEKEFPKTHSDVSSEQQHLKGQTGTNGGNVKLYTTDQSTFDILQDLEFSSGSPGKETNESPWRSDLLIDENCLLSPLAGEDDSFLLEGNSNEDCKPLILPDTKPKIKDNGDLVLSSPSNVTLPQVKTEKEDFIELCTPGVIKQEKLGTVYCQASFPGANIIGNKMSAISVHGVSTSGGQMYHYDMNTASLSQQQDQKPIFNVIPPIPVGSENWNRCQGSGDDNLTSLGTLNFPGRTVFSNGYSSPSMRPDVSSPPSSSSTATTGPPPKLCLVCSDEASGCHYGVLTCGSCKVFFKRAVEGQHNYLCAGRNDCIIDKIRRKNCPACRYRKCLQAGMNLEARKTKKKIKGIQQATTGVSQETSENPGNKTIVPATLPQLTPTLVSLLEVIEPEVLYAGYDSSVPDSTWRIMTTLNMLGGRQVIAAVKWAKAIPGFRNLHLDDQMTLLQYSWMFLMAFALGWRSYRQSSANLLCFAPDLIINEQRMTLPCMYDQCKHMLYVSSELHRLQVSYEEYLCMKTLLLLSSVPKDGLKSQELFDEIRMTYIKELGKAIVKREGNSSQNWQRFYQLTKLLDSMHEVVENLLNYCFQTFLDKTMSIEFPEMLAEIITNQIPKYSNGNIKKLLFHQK

Rattus norvegicus [2] = assay: Toxicity in ip dosed Brown-Norway rat assessed as decrease in body weight administered for 3 days; assay type: organism-based; settings: in vivo, 72 h
Rattus norvegicus [3] = assay: Antiinflammatory activity in intratracheal insufflated allergen challenged Brown-Norway rat assessed as inhibition of inflammatory cell influx administered as single dose; assay type: functional; settings: inhaled or nasal
Rattus norvegicus [4] = assay: Toxicity in ip dosed Brown-Norway rat assessed as decrease in thymus weight administered for 3 days; assay type: organism-based; settings: in vivo, 72 h
[5] = biological target: T1, Glucocorticoid receptor (Homo sapiens); assay: Transrepression activity at glucocorticoid receptor in human H292 cells assessed as inhibition of TNF-stimulated IL-6 cytokine synthesis at 1 uM relative to control; assay type: cell-based
[6] = biological target: T2, Glucocorticoid receptor (Rattus norvegicus) (UniProt P06536); assay: Transactivation activity at glucocorticoid receptor in rat H4II-E cells assessed as induction of tyrosine amino transferase at 1 uM relative to control; assay type: cell-based
T2 sequence (whole entry): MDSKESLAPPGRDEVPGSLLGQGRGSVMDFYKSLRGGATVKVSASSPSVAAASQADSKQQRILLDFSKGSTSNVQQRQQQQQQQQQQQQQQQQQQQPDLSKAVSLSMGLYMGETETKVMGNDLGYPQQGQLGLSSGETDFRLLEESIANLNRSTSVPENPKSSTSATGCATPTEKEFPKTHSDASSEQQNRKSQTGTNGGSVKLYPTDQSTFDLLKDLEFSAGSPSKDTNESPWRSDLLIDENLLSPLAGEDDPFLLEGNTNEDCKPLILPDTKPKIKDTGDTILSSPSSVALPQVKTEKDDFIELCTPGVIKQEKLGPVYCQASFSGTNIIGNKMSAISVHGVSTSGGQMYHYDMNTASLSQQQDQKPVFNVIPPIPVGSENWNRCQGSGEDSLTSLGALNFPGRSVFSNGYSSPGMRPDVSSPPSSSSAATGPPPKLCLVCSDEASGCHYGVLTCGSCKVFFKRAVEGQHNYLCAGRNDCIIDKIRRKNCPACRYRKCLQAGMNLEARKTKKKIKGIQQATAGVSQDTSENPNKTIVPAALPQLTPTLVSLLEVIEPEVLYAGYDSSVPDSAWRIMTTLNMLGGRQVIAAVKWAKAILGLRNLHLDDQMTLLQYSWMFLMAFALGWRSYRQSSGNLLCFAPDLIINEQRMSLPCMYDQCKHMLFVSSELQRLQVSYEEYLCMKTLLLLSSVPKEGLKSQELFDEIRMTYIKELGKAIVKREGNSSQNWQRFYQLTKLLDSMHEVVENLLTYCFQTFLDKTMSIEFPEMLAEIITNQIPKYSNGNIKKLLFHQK

Rattus norvegicus [7] = assay: Induction of thymolysis in ovalbumin-challenged Brown-Norway rat administered via nose inhalation; assay type: organism-based; settings: in vivo, inhaled_or_intranasal
Rattus norvegicus [8] = assay: Antiinflammatory activity in ovalbumin-challenged Brown-Norway rat assessed as improvement in lung function administered via nose as dry powder inhalation once a day for 3 days; assay type: functional; settings: inhaled or nasal, 72 h
Rattus norvegicus [9] = assay: Toxicity in ip dosed Brown-Norway rat assessed as decrease in adrenal weight administered for 3 days; assay type: organism-based; settings: in vivo, 72 h

CCC(=O)O[C@]1(C(=O)SCF)[C@H](C)C[C@H]2[C@@H]3C[C@H](F)C4=CC(=O)C=C[C@]4(C)[C@@]3(F)[C@@H](O)C[C@@]21C [FLUTICASONE PROPIONATE]
Emax [1]: 113%
ED50 (Rattus norvegicus [2]): 0.34 mg/kg
ED50 (Rattus norvegicus [3]): 0.14 mg/kg
ED50 (Rattus norvegicus [4]): 0.14 mg/kg
Emax [5]: 99%
Emax [6]: 110%
ED20 (Rattus norvegicus [7]): 0.023 mg/kg
ED70 (Rattus norvegicus [8]): 0.021 mg/kg
ED50 (Rattus norvegicus [9]): 0.52 mg/kg
